From PMC11266932, “Enhanced absorption of prenylated cinnamic acid derivatives from Brazilian green propolis by turmeric in humans and rats” (Food Science & Nutrition, 2024) come the findings set out here.

Series [1] in a line: Clinical trial: plasma concentration and AUC of cinnamic acid derivatives after ingestion of BGP alone or BGP plus herbal extract mixture. The format is in vivo. As to conditions: humans, BGP and herbal extracts co-administered; for fold increase of AUC versus BGP administered alone: 0–24 h; for AUC: plasma 0–24 h, after enzymatic deconjugation, mean ± SD, n = 6. On the procedure: Six volunteers (three males and three females) completely understood the study protocol and consented to participate in the research. The following exclusion criteria were used for shortlisting participants: past or present medical history (asthma, significant allergies, heart, liver, kidney, and urinary tract disease); prescribed medication; pregnancy; smoking (>20 cigarettes/day); alcohol consumption (>500 mL/day of beer); use of dietary supplements and healthy foods; and participation in other clinical trials. The participants were instructed to refrain from consuming propolis and propolis‐containing foods and beverages during the study period and 1 week prior to the start of the study. After a 12‐h fast, the participants were given a test food comprising the encapsulated BGP powder or a mixture of the BGP powder and herbal extracts in two experimental periods separated by 1 week. […] The collected samples were centrifuged at 1500 g for 3 min at 23 ± 2°C to separate the plasma, which was subsequently preserved at −80°C until further sample preparation.
(§1) Briefly, 50 μL of plasma was treated with a sulfatase/β‐glucuronidase solution (sulfatase 15 units/sample) in 100 mM sodium acetate and 5 mM ascorbate at 37°C for 1 h. Following the incubation, 850 μL of methanol was added to the samples to stop the deconjugation reaction, after which centrifugation was performed at 2000 g for 10 min at 23 ± 2°C. The supernatant was evaporated under nitrogen gas and then reconstituted in a fixed volume of methanol. The samples were filtered through a 0.22 μm PTFE membrane and then analyzed by LC–MS/MS.
(§2) Briefly, 5 μL of the sample was injected into a reversed‐phase column (Acquity UPLC BEH C18, 2.1 × 100 mm, ID. 1.7 μm; Waters, Milford, MA, USA) held at 30°C. The elution was performed using solvent A (0.1% formic acid) and solvent B (acetonitrile) at a flow rate of 0.3 mL/min. The gradient profiles were as follows: 5% B (0–2 min), 5–95% B (2–22 min), 95% B (22–25 min), and 5% B (25–30 min). Tandem mass spectrometry (MS/MS) was conducted using an ion trap mass spectrometer with a heated electrospray ion source (HESI) in both positive and negative ionization modes (scan range m/z 70–1000). […] External standard curves for cinnamic acid derivatives were generated using eight concentrations of authentic standard solutions (1, 5, 10, 50, 100, 250, 500, and 1000 ng/mL).
(§3) Quantification of cinnamic acid derivatives in the plasma was performed using the Trace Finder software version 4.1 (Thermo Scientific). The plasma concentration versus time data for the analytes obtained from each human and rat were entered into a Microsoft Excel spreadsheet. The area under the plasma concentration–time curve (AUC) was calculated using the linear trapezoidal rule, extending to the last sampling point.

A short description of series [2]: Animal study: plasma concentration and AUC of cinnamic acid derivatives after intragastric BGP with or without each herbal extract. The format is in vivo, Wistar/ST rats. As to conditions: rats. On the procedure: Wistar/ST rats (male, 7 weeks old) were purchased from Japan SLC (Shizuoka, Japan). […] The rats were quarantined and acclimatized under the above conditions for 1 week and divided into six groups (eight rats/group) according to their average body weight (240–260 g). Each test sample listed in Table 1 was dissolved in 10% propylene glycol (1 mL per rat) and administered intragastrically to the rats after an overnight fasting period with free access to water. […] The collected samples were centrifuged at 1500 g for 10 min at 4°C to separate the plasma and preserved at −80°C until further sample preparation.
as §1, §2, §3

[3] abbreviates: BGP co-administered with turmeric extract.

Like-named read-outs stand apart in the source and are kept apart here.

Turning to `CC(C)=CCc1cc(/C=C/C(=O)O)cc(C/C=C(\C)CO)c1O` [capillartemisin A], the figures for the “fold increase of AUC versus BGP administered alone” value in series [1] and in series [2] (setting [3]) were 1.6 fold and 1.7 fold, respectively. Moreover, in series [1], the area under the curve (AUC) turned out to be 57.0 ± 16.5 ng·h/mL. In addition, the “fold increase of plasma concentration versus BGP alone” value amounted to 2.2 fold in series [2] (BGP + turmeric extract, 30 min after administration); 1.7 fold in series [2] (BGP + turmeric extract, 3 h after administration); 3.0 fold in series [2] (BGP + turmeric extract, 6 h after administration).
With `CC(C)=CCc1cc(C=CC(=O)O)cc(O)c1O` [3,4‐dihydroxy‐5‐prenylcinnamic acid], the AUC in series [1] (both sexes, human, oral, read-out: AUC) turned out to be 34.5 ± 12.2 ng·h/mL. Also, the “fold increase of AUC versus BGP administered alone” value in series [1] is given as 1.8 fold. In addition, the “change of plasma concentration versus BGP alone (in words)” value in series [2] (BGP + turmeric extract, at 30 min and 3 h) was “significant increases or increasing trends”. Further, the “change of AUC versus BGP alone (in words)” value in series [2] (BGP co-administered with gotu kola extract) and in series [2] (setting [3]) was “tended to increase” throughout.
